Reference: PubChem BioAssay AID330 (DTP/NCI, 2004)
Several values for one entry are separate records, joined by “and”; a condition that tells them apart may be missing. Equal values may be shown once. Toxic doses and inconclusive results are not listed.

Tested on: P388 leukemia ip, CD2F1 mice, survival T/C
Experiment: NCI In Vivo Anticancer Drug Screen. Data for tumor model P388 Leukemia (intraperitoneal) in CD2F1 (CDF1) mice
Settings: endpoint: median survival time, higher = longer survival
Outline: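 Mice carrying the transplanted tumor received test compound or vehicle. Survival was recorded in each group, and the value is the treated-group measurement divided by that of the vehicle-treated control group.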

[1] = dose: 60.0 mg/kg/injection, schedule: Q01DX005 (ip), vehicle: saline with Tween-80
[2] = dose: 120.0 mg/kg/injection, schedule: Q01DX005 (ip), vehicle: saline with Tween-80
[3] = dose: 240.0 mg/kg/injection, schedule: Q01DX005 (ip), vehicle: saline with Tween-80
[4] = dose: 100.0 mg/kg/injection, schedule: Q04DX003 (ip), vehicle: Klucel (hydroxypropylcellulose) (HPC)
[5] = dose: 200.0 mg/kg/injection, schedule: Q04DX003 (ip), vehicle: Klucel (hydroxypropylcellulose) (HPC)
[6] = dose: 50.0 mg/kg/injection, schedule: Q01DX009 (ip), vehicle: saline
[7] = dose: 100.0 mg/kg/injection, schedule: Q01DX009 (ip), vehicle: saline
[8] = dose: 200.0 mg/kg/injection, schedule: Q01DX009 (ip), vehicle: saline
[9] = dose: 100.0 mg/kg/injection, schedule: Q04DX002 (ip), vehicle: saline with Tween-80
[10] = dose: 200.0 mg/kg/injection, schedule: Q04DX002 (ip), vehicle: saline with Tween-80
[11] = dose: 400.0 mg/kg/injection, schedule: Q04DX002 (ip), vehicle: saline with Tween-80
[12] = dose: 50.0 mg/kg/injection, schedule: Q01DX009 (ip), vehicle: Klucel (hydroxypropylcellulose) (HPC)
[13] = dose: 100.0 mg/kg/injection, schedule: Q01DX009 (ip), vehicle: Klucel (hydroxypropylcellulose) (HPC)
[14] = dose: 200.0 mg/kg/injection, schedule: Q01DX009 (ip), vehicle: Klucel (hydroxypropylcellulose) (HPC)
[15] = dose: 100.0 mg/kg/injection, schedule: Q04DX003 (ip), vehicle: saline with Tween-80
[16] = dose: 50.0 mg/kg/injection, schedule: Q01DX005 (ip), vehicle: Klucel (hydroxypropylcellulose) (HPC)
[17] = dose: 100.0 mg/kg/injection, schedule: Q01DX005 (ip), vehicle: Klucel (hydroxypropylcellulose) (HPC)
[18] = dose: 200.0 mg/kg/injection, schedule: Q01DX005 (ip), vehicle: Klucel (hydroxypropylcellulose) (HPC)
[19] = dose: 25.0 mg/kg/injection, schedule: Q04DX003 (ip), vehicle: saline with Tween-80

## C=C(CBr)CCCCC
[1]
  T/C: 104 % of control
[2]
  T/C: 105 % of control
[3]
  T/C: 117 % of control

## Cc1cc2oc(=O)cc(C(=O)O)c2c(=O)o1
[4]
  T/C: 102 % of control
[5]
  T/C: 95 % of control
dose: 400.0 mg/kg/injection, schedule: Q04DX003 (ip), vehicle: Klucel (hydroxypropylcellulose) (HPC)
  T/C: 87 % of control

## O=[N+]([O-])c1cccnc1Sc1nc2ccccc2[nH]1
[6]
  T/C: 96 % of control
[7]
  T/C: 101 % of control
[8]
  T/C: 101 % of control

## CCC(CC)C(=O)NC(=O)NC(N)=O
[1]
  T/C: 97 % of control
[2]
  T/C: 97 % of control
[3]
  T/C: 112 % of control

## NNP(=O)(NN)C(Cl)(Cl)Cl
dose: 15.0 mg/kg/injection, schedule: Q01DX005 (ip), vehicle: saline
  T/C: 101 % of control
dose: 30.0 mg/kg/injection, schedule: Q01DX005 (ip), vehicle: saline
  T/C: 100 % of control
dose: 60.0 mg/kg/injection, schedule: Q01DX005 (ip), vehicle: saline
  T/C: 108 % of control and 114 % of control

## Oc1cccc(Nc2ccccc2)c1
dose: 50.0 mg/kg/injection, schedule: Q01DX009 (ip), vehicle: olive oil, sesame oil, peanut oil
  T/C: 108 % of control
dose: 100.0 mg/kg/injection, schedule: Q01DX009 (ip), vehicle: olive oil, sesame oil, peanut oil
  T/C: 103 % of control
dose: 200.0 mg/kg/injection, schedule: Q01DX009 (ip), vehicle: olive oil, sesame oil, peanut oil
  T/C: 111 % of control

## O=S1(=O)c2ccccc2C(N2CCCCC2)C1CCCCC1C(N2CCCCC2)c2ccccc2S1(=O)=O (stereo not drawn)
[9]
  T/C: 100 % of control
[10]
  T/C: 98 % of control
[11]
  T/C: 99 % of control

## c1ccc(N=C2SCCCS2)cc1
[12]
  T/C: 103 % of control
[13]
  T/C: 97 % of control
[14]
  T/C: 105 % of control

## OC(Cc1cccnc1)(c1ccccc1)c1cccc2ccccc12 (stereo not drawn)
[15]
  T/C: 90 % of control
dose: 200.0 mg/kg/injection, schedule: Q04DX003 (ip), vehicle: saline with Tween-80
  T/C: 86 % of control

## COc1ccc(C(=O)Nc2c(Cl)cccc2Cl)cc1OC
[1]
  T/C: 94 % of control
[2]
  T/C: 88 % of control

## COc1ccc(CC#N)c(C(=O)O)c1
[16]
  T/C: 106 % of control
[17]
  T/C: 103 % of control
[18]
  T/C: 101 % of control

## CN1CCC(/C=C/c2ccccc2)CN1 (stereo not drawn) (tested in a mixture with another compound)
[6]
  T/C: 113 % of control
[7]
  T/C: 118 % of control

## Cc1cc(N/N=C/c2ccc(N(CCCl)CCCl)cc2)c2cc3c(cc2n1)OCO3
[19]
  T/C: 111 % of control

## CCCCCCCCCCCCCCCCOc1ccc(C(=O)O)cc1S(=O)(=O)N/N=c1/sc2cc(Cl)cc(Cl)c2n1C
[6]
  T/C: 88 % of control
[7]
  T/C: 93 % of control
[8]
  T/C: 86 % of control

## COc1ccc(C(CC(=O)N(CCCl)CCCl)CC(=O)N(CCCl)CCCl)cc1
dose: 100.0 mg/kg/injection, schedule: Q01DX001 (ip), vehicle: suspension in saline
  T/C: 108 % of control
dose: 200.0 mg/kg/injection, schedule: Q01DX001 (ip), vehicle: suspension in saline
  T/C: 119 % of control

## CN(C)c1ccc(-c2nc(=O)[nH]c(=O)s2)cc1
dose: 50.0 mg/kg/injection, schedule: Q01DX009 (ip), vehicle: saline with Tween-80
  T/C: 102 % of control
dose: 100.0 mg/kg/injection, schedule: Q01DX009 (ip), vehicle: saline with Tween-80
  T/C: 100 % of control
dose: 200.0 mg/kg/injection, schedule: Q01DX009 (ip), vehicle: saline with Tween-80
  T/C: 98 % of control

## C=CC12COC(=O)CC1CCC(=O)C2 (stereo not drawn)
[4]
  T/C: 99 % of control
[5]
  T/C: 100 % of control

## [Br][Pt+2][Br].[NH-]C(c1ccccc1)C([NH-])c1ccccc1 (stereo not drawn)
dose: 12.5 mg/kg/injection, schedule: Q04DX002 (ip), vehicle: saline with Tween-80
  T/C: 112 % of control

## CCCCCCCCCCCC(=O)N(C)CCOC(=O)C(C)(C)C
[6]
  T/C: 106 % of control
[7]
  T/C: 98 % of control
[8]
  T/C: 116 % of control

## O=C(Nc1cccc(C(F)(F)F)c1)c1cc(Br)cc(Br)c1O
dose: 6.25 mg/kg/injection, schedule: Q01DX009 (ip), vehicle: Klucel (hydroxypropylcellulose) (HPC)
  T/C: 95 % of control
dose: 12.5 mg/kg/injection, schedule: Q01DX009 (ip), vehicle: Klucel (hydroxypropylcellulose) (HPC)
  T/C: 100 % of control
dose: 25.0 mg/kg/injection, schedule: Q01DX009 (ip), vehicle: Klucel (hydroxypropylcellulose) (HPC)
  T/C: 91 % of control

## COc1cc2c(cc1OC)C(C1c3cc(OC)c(OC)cc3-c3c(OC)c(OC)cc4c3C1N(C)CC4)C1c3c(cc(OC)c(OC)c3-2)CCN1C (stereo not drawn)
dose: 100.0 mg/kg/injection, schedule: Q04DX003 (ip), vehicle: saline
  T/C: 99 % of control
dose: 200.0 mg/kg/injection, schedule: Q04DX003 (ip), vehicle: saline
  T/C: 100 % of control
dose: 400.0 mg/kg/injection, schedule: Q04DX003 (ip), vehicle: saline
  T/C: 97 % of control

## C/C=C/C=C/C(=O)CCC1(C)OC(=O)C(C)=C1O (stereo not drawn)
[16]
  T/C: 96 % of control
[17]
  T/C: 113 % of control
[18]
  T/C: 93 % of control

## C1=CC2C1C1OC1C1OC21 (stereo not drawn)
[9]
  T/C: 101 % of control
[10]
  T/C: 100 % of control
[11]
  T/C: 101 % of control

## O=C(CCC(=O)ON1C(=O)CCC1=O)OCCOC(=O)CCC(=O)ON1C(=O)CCC1=O
dose: 50.0 mg/kg/injection, schedule: Q01DX005 (ip), vehicle: saline with Tween-80
  T/C: 116 % of control
dose: 100.0 mg/kg/injection, schedule: Q01DX005 (ip), vehicle: saline with Tween-80
  T/C: 114 % of control
dose: 200.0 mg/kg/injection, schedule: Q01DX005 (ip), vehicle: saline with Tween-80
  T/C: 98 % of control

## C=C1C(=O)O[C@@H]2/C=C(\C)CC/C=C(/COC(C)=O)C[C@@H](OC(C)=O)[C@@H]12
dose: 6.25 mg/kg/injection, schedule: Q01DX009 (ip), vehicle: saline with Tween-80
  T/C: 97 % of control
dose: 9.0 mg/kg/injection, schedule: Q01DX009 (ip), vehicle: acetone
  T/C: 106 % of control
dose: 12.5 mg/kg/injection, schedule: Q01DX009 (ip), vehicle: saline with Tween-80
  T/C: 103 % of control
dose: 18.0 mg/kg/injection, schedule: Q01DX009 (ip), vehicle: acetone
  T/C: 106 % of control
dose: 25.0 mg/kg/injection, schedule: Q01DX009 (ip), vehicle: saline with Tween-80
  T/C: 106 % of control
dose: 36.0 mg/kg/injection, schedule: Q01DX009 (ip), vehicle: acetone
  T/C: 109 % of control
dose: 72.0 mg/kg/injection, schedule: Q01DX009 (ip), vehicle: acetone
  T/C: 124 % of control

## CCn1c(=O)c2[nH]c(=S)[nH]c2n(CC)c1=O
dose: 16.0 mg/kg/injection, schedule: Q01DX009 (ip), vehicle: Klucel (hydroxypropylcellulose) (HPC)
  T/C: 108 % of control
dose: 32.0 mg/kg/injection, schedule: Q01DX009 (ip), vehicle: Klucel (hydroxypropylcellulose) (HPC)
  T/C: 104 % of control
[12]
  T/C: 105 % of control
dose: 64.0 mg/kg/injection, schedule: Q01DX009 (ip), vehicle: Klucel (hydroxypropylcellulose) (HPC)
  T/C: 107 % of control
[13]
  T/C: 95 % of control
[14]
  T/C: 102 % of control

## CS(=O)(=O)N1C2CC3CCCCC3CC21 (stereo not drawn)
dose: 25.0 mg/kg/injection, schedule: Q04DX002 (ip), vehicle: saline with Tween-80
  T/C: 99 % of control
dose: 50.0 mg/kg/injection, schedule: Q04DX002 (ip), vehicle: saline with Tween-80
  T/C: 99 % of control
[9]
  T/C: 105 % of control and 110 % of control
[10]
  T/C: 112 % of control
[11]
  T/C: 112 % of control

## Cc1ccc2cc3c(ccc4ccccc43)c3c2c1CC3
[19]
  T/C: 113 % of control
dose: 33.0 mg/kg/injection, schedule: Q01DX009 (ip), vehicle: saline with Tween-80
  T/C: 121 % of control
[15]
  T/C: 150 % of control
dose: 300.0 mg/kg/injection, schedule: Q04DX003 (ip), vehicle: saline with Tween-80
  T/C: 152 % of control
dose: 400.0 mg/kg/injection, schedule: Q04DX003 (ip), vehicle: saline with Tween-80
  T/C: 172 % of control

## COc1ccc2nc3cc(Cl)ccc3c(NCCC3CCCN4CCCCC34)c2c1 (stereo not drawn)
dose: 12.5 mg/kg/injection, schedule: Q01DX005 (ip), vehicle: distilled water + Tween-80
  T/C: 109 % of control
dose: 25.0 mg/kg/injection, schedule: Q01DX005 (ip), vehicle: distilled water + Tween-80
  T/C: 114 % of control
